Source: US20220091128A1, “SYSTEM AND METHOD FOR LIGAND THERMAL ANALYSIS” (Portland State University, priority 2019, published 2022)
“And” between values parts separate entries of the source, which are not always exact repeats. Equal entries are not always repeated. Where two headings read alike, the source gives them in different places. Blank lines part the entries; values can stand above or below the molecule they belong to.

Experiments:
[1] = target: T1, human serum albumin (HSA) (Homo sapiens, UniProt P02768); experiment: DSC thermograms of HSA with ligand (single-ligand titration); assay type: binding; conditions: for Binding Site stoichiometry / Implied number of sites: from dose response curves with HSA; for Tm / ΔG37^O / ΔHcal / ΔScal: thermal denaturation of HSA
T1 construct: purchased Sigma Aldrich (St. Louis, Mo.)
Experimental: Chemicals and reagents: Plasma and highly pure plasma proteins are sourced from commercial suppliers. Standard reagents are sourced from commercial suppliers. Samples are prepared in standard phosphate-buffered saline (PBS) buffer. In some examples, human plasma and serum albumin were purchased from Sigma Aldrich (St. Louis, Mo.) and received as lyophilized powder. Plasma was product number: P9523, lot number: SLBT0202. […] In vivo, the standard state of HSA is most certainly bound to some extent by fatty acids. Plasma and HSA stock solutions were prepared by re-suspending the appropriate amount of powder in buffer. Samples were prepared by diluting stock solutions to a final concentration of 1.5-2.0 mg/mL.
Protein concentration was approximately 2 mg/ml.
In a DSC melting experiment, the supplemental power supplied to the sample cell (in μW) necessary to keep the sample temperature equal to the reference temperature is continually monitored. […] Supplemental power is directly related to the molar heat capacity at constant pressure, ΔCp. Curves of ΔCp versus T provide an evaluation of the thermodynamic enthalpy. To enable direct comparisons in some cases, power (μW) versus T plots (instead of ΔCp versus T curves) were used for the following reason.
Analysis of DSC data was performed using the Nanoanalyze software package, version 3.7.5, provided by T.A. Instruments. […]
From the thermograms, semi-quantitative evaluations of the thermodynamic parameters ΔHcal, ΔScal and ΔGcal(37° C.) were obtained at each ligand concentration.
These curves were constructed from titrations of DM1 with HSA. The Tm and ΔGcal(37° C.) were evaluated. The values were normalized against standard HSA and plotted versus ligand concentration to provide the dose curves in FIG. 20A (Tm) and FIG. 20B (ΔGcal(37° C.)).
Natural HSA samples were prepared at pH 6.0 and pH 8.0 and examined by DSC. […] From DSC melting curves thermodynamic parameters for HSA/ligand mixtures were evaluated.

human plasma = experiment: DSC thermograms of plasma with ligand; assay type: binding; conditions: plasma
biotinylated HSA (HSAB) = biotinylated HSA (HSAB) (Homo sapiens, UniProt P02768); experiment: DSC thermograms of biotinylated HSA (HSAB) with ligands; assay type: binding
[2] = target: T1, human serum albumin (HSA); experiment: Two-ligand (NAP + BCG) binding to standard HSA by DSC
HSA [3] = target: T2, HSA (Homo sapiens, UniProt P02768); design: purchased Sigma Aldrich (St. Louis, Mo.); conditions: cited from earlier work; for Kd: binding to HSA, read-out: Average Literature KD
HSA [4] = target: T2, HSA; experiment: Drug screening: HSA binding constants from DSC thermograms
HSA [5] = target: T2, HSA
[6] = after several days; cited from earlier work
[7] = ligand 22.5 μM (so in the source)

biotinylated HSA (HSAB), sequence (P02768 25-609): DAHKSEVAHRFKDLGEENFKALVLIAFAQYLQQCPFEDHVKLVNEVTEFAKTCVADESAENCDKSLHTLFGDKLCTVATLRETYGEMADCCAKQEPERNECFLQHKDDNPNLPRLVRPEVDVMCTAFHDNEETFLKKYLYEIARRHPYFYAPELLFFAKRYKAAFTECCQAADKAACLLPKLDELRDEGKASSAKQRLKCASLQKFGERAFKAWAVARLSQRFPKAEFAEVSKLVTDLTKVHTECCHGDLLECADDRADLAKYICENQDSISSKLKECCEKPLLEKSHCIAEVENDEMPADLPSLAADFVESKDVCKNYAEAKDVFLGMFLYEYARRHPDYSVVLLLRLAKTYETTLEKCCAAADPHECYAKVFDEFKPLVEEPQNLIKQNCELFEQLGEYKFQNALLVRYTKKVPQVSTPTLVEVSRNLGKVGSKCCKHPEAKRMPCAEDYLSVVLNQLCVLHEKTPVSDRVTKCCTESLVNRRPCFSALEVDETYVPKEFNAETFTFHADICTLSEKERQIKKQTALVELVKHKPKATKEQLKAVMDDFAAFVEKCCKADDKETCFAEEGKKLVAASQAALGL
T2 sequence (P02768 25-609): as above
T1 sequence (P02768 25-609): as above

SMILES: Cc1c(C2(c3cc(Br)c(O)c(Br)c3C)OS(=O)(=O)c3ccccc32)cc(Br)c(O)c1Br [BCG, bromocresol green]
increase of ΔGcal(37° C.) versus titration curve at pH 7.4 ([1]; HSA + ligand at pH 6.0, as much as): ~5 kcal/mol
lowering of ΔGcal(37° C.) versus titration curve at pH 7.4 ([1]; HSA + ligand at pH 8.0): ~2 kcal/mol
ΔHcal of HSA/ligand ([1]; HSA, 100 μM ligand (text, FIG. 10B)): 165.6 kcal/mol and 166 kcal/mol
Binding Site stoichiometry [1]: 3
Implied number of sites [1]: 6
Tm ([1]; ligand 1 μM): 62.9 °C
ΔG37^O ([1]; ligand 1 μM): 13.11 kcal/mol
ΔHcal ([1]; ligand 1 μM): 170.12 kcal/mol
ΔScal ([1]; ligand 1 μM): 506.23 cal/molK
Tm ([1]; ligand 10 μM): 63.3 °C
ΔG37^O ([1]; ligand 10 μM): 13.83 kcal/mol
ΔHcal ([1]; ligand 10 μM): 176.99 kcal/mol
ΔScal ([1]; ligand 10 μM): 526.08 cal/molK
Tm [1, 7]: 70.8 °C
ΔG37^O [1, 7]: 16.43 kcal/mol
ΔHcal [1, 7]: 167.24 kcal/mol
ΔScal [1, 7]: 486.25 cal/molK
Tm ([1]; ligand 25 μM): 63.6 °C
ΔG37^O ([1]; ligand 25 μM): 14.39 kcal/mol
ΔHcal ([1]; ligand 25 μM): 182.05 kcal/mol
ΔScal ([1]; ligand 25 μM): 540.59 cal/molK
Tm ([1]; ligand 50 μM): 64.0 °C
ΔG37^O ([1]; ligand 50 μM): 15.19 kcal/mol
ΔHcal ([1]; ligand 50 μM): 189.75 kcal/mol
ΔScal ([1]; ligand 50 μM): 562.81 cal/molK
Tm ([1]; ligand 75 μM): 64.6 °C
ΔG37^O ([1]; ligand 75 μM): 15.33 kcal/mol
ΔHcal ([1]; ligand 75 μM): 187.76 kcal/mol
ΔScal ([1]; ligand 75 μM): 555.95 cal/molK
Tm ([1]; ligand 125 μM): 67.2 °C
ΔG37^O ([1]; ligand 125 μM): 16.18 kcal/mol
ΔHcal ([1]; ligand 125 μM): 182.33 kcal/mol
ΔScal ([1]; ligand 125 μM): 535.71 cal/molK
Tm ([1]; ligand 150 μM): 69.0 °C
ΔG37^O ([1]; ligand 150 μM): 16.74 kcal/mol
ΔHcal ([1]; ligand 150 μM): 178.84 kcal/mol
ΔScal ([1]; ligand 150 μM): 522.66 cal/molK
Tm ([1]; ligand 175 μM): 69.1 °C
ΔG37^O ([1]; ligand 175 μM): 15.92 kcal/mol
ΔHcal ([1]; ligand 175 μM): 169.77 kcal/mol
ΔScal ([1]; ligand 175 μM): 496.04 cal/molK
Tm ([1]; ligand 200 μM): 70.3 °C
ΔG37^O ([1]; ligand 200 μM): 16.24 kcal/mol
ΔHcal ([1]; ligand 200 μM): 167.42 kcal/mol
ΔScal ([1]; ligand 200 μM): 487.44 cal/molK
shift in Tm (human plasma; 100 μM ligand): about 7 °C
enthalpy (ΔHcal) of plasma with ligand (human plasma; 100 μM ligand (FIG. 10A)): 141 kcal/mol
major Tm peak of plasma shifted to (human plasma; 100 μM ligand (FIG. 10A)): 72 °C
Binding Chemical Potentials (ΔG^O37) (biotinylated HSA (HSAB); HSAB 1:1 with 50 μM BCG, [NAP] 0 μM): 18.49 kcal/mol
Binding Chemical Potentials (ΔG^O37) (biotinylated HSA (HSAB); HSAB 1:1 with 50 μM NAP, [BCG] 50 μM): 21.76 kcal/mol
Binding Chemical Potentials (ΔG^O37) (biotinylated HSA (HSAB); HSAB 1:1 with 50 μM NAP, [BCG] 75 μM): 22.56 kcal/mol
Binding Chemical Potentials (ΔG^O37) (biotinylated HSA (HSAB); HSAB 1:1 with 50 μM NAP, [BCG] 150 μM): 22.96 kcal/mol
Binding Chemical Potentials (ΔG^O37) (biotinylated HSA (HSAB); HSAB 1:5 with 50 μM BCG, [NAP] 0 μM): 21.27 kcal/mol
Binding Chemical Potentials (ΔG^O37) (biotinylated HSA (HSAB); HSAB 1:5 with 50 μM NAP, [BCG] 50 μM): 24.12 kcal/mol
Binding Chemical Potentials (ΔG^O37) (biotinylated HSA (HSAB); HSAB 1:5 with 50 μM NAP, [BCG] 75 μM): 25.60 kcal/mol
Binding Chemical Potentials (ΔG^O37) (biotinylated HSA (HSAB); HSAB 1:5 with 50 μM NAP, [BCG] 150 μM): 25.06 kcal/mol
Binding Chemical Potentials (ΔG^O37) (biotinylated HSA (HSAB); HSAB 1:10 with 50 μM BCG, [NAP] 0 μM): 22.37 kcal/mol
Binding Chemical Potentials (ΔG^O37) (biotinylated HSA (HSAB); HSAB 1:10 with 50 μM NAP, [BCG] 50 μM): 25.04 kcal/mol
Binding Chemical Potentials (ΔG^O37) (biotinylated HSA (HSAB); HSAB 1:10 with 50 μM NAP, [BCG] 75 μM): 25.30 kcal/mol
Binding Chemical Potentials (ΔG^O37) (biotinylated HSA (HSAB); HSAB 1:10 with 50 μM NAP, [BCG] 150 μM): 24.99 kcal/mol
Binding Chemical Potentials (ΔG^O37) ([2]; HSA25BCG (HSA + 25 μM BCG), [NAP] 0 μM): 14.00 kcal/mol
Binding Chemical Potentials (ΔG^O37) ([2]; HSA25NAP (pre-bound 25 μM NAP), [BCG] 50 μM): 18.33 kcal/mol
Binding Chemical Potentials (ΔG^O37) ([2]; HSA25NAP (pre-bound 25 μM NAP), [BCG] 75 μM): 19.49 kcal/mol
Binding Chemical Potentials (ΔG^O37) ([2]; HSA25NAP (pre-bound 25 μM NAP), [BCG] 150 μM): 19.61 kcal/mol
Binding Chemical Potentials (ΔG^O37) ([2]; HSA50BCG (HSA + 50 μM BCG), [NAP] 0 μM): 15.13 kcal/mol
Binding Chemical Potentials (ΔG^O37) ([2]; HSA50NAP (pre-bound 50 μM NAP), [BCG] 50 μM): 18.27 kcal/mol
Binding Chemical Potentials (ΔG^O37) ([2]; HSA50NAP (pre-bound 50 μM NAP), [BCG] 75 μM): 18.47 kcal/mol
Binding Chemical Potentials (ΔG^O37) ([2]; HSA50NAP (pre-bound 50 μM NAP), [BCG] 150 μM): 19.29 kcal/mol
Binding Chemical Potentials (ΔG^O37) ([2]; HSA75BCG (HSA + 75 μM BCG), [NAP] 0 μM): 15.33 kcal/mol
Binding Chemical Potentials (ΔG^O37) ([2]; HSA75NAP (pre-bound 75 μM NAP), [BCG] 50 μM): 19.51 kcal/mol
Binding Chemical Potentials (ΔG^O37) ([2]; HSA75NAP (pre-bound 75 μM NAP), [BCG] 75 μM): 20.42 kcal/mol
Binding Chemical Potentials (ΔG^O37) ([2]; HSA75NAP (pre-bound 75 μM NAP), [BCG] 150 μM): 21.08 kcal/mol
Binding Chemical Potentials (ΔG^O37) ([2]; WT HSA with 50 μM BCG, [NAP] 0 μM): 15.19 kcal/mol
Binding Chemical Potentials (ΔG^O37) ([2]; WT HSA with 50 μM NAP, [BCG] 50 μM): 18.38 kcal/mol
Binding Chemical Potentials (ΔG^O37) ([2]; WT HSA with 50 μM NAP, [BCG] 75 μM): 18.74 kcal/mol
Binding Chemical Potentials (ΔG^O37) ([2]; WT HSA with 50 μM NAP, [BCG] 150 μM): 19.86 kcal/mol
binding stoichiometry n on HSA (HSA [3]; NAP Sudlow site II, BCG Sudlow site I): 3
Kd (HSA [3]): 1.43 µM
Kd (HSA [4]; read-out: Average Measured KD; binding to HSA; single value or value marked 1)): 3.31 µM
Kd (HSA [4]; read-out: Measured KD From TM; binding to HSA; single value or value marked 1)): 4.97 µM
Kd (HSA [4]; read-out: Measured KD from ΔG^037; binding to HSA; single value or value marked 1)): 1.64 µM

Measured HSA binding (cell spanning the measured KD columns; same in text) (HSA [5]): No Binding Detected
SMILES: O=C([O-])CN1CCN(CC(=O)[O-])CCN([C@H](CO)[C@H](O)CO)CCN(CC(=O)[O-])CC1.[Gd+3] [Gadavist (GAD)]

Measured HSA binding (cell spanning the measured KD columns; same in text) (HSA [5]): No Binding Detected
SMILES: CNC[C@H](O)[C@@H](O)[C@H](O)[C@H](O)CO.CNC[C@H](O)[C@@H](O)[C@H](O)[C@H](O)CO.O=C([O-])CN(CCN(CC(=O)[O-])CC(=O)O)CCN(CC(=O)[O-])CC(=O)O.[Gd+3] [Magnevist (MAG)]

Binding Site stoichiometry [1]: 1
Implied number of sites [1]: 1
Kd (HSA [4]; Average Measured KD, binding to HSA; single value or value marked 1)): 26.1 µM
Kd (HSA [4]; Measured KD From TM, binding to HSA; single value or value marked 1)): 23.6 µM
Kd (HSA [4]; Measured KD from ΔG^037, binding to HSA; single value or value marked 1)): 28.6 µM
SMILES: CCCCNc1ccc(C(=O)OCCN(C)C)cc1 [Tet, Tetracaine]
effect on fibrinogen melting transition peak (52° C.) of the plasma thermogram (human plasma; 2 mg/mL ligand): slight change
Tm where the HSA in plasma transition occurs (human plasma; 2 mg/mL ligand, control 62-64° C.): 63-65 °C
in vivo activity [6]: retained significant activity after several days
Kd (HSA [3]): 59.8 µM
